The text below walks through data of patent publication US20260258084A1, “New Peptides as Selective IL-23 Receptor Antagonists” (Sanofi, priority 2022, published 2026).

The data set deals with Pancreatin. The data set can be described thus: Protease stability in simulated intestinal fluid (Pancreatin-SIF, FaSSIF). The class given is in vitro ADME. The note with it: 1 μM peptide, 37° C.; for remaining at 1 h, 1 µM: 60 min, read-out: FaSSIF 60 (min), remaining percent of peptide; for remaining at 2 h, 1 µM: 120 min, read-out: FaSSIF 120 (min), remaining percent of peptide; for remaining at 4 h, 1 µM: 240 min, read-out: FaSSIF 240 (min), remaining percent of peptide. Put shortly:
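LC-MS/MS peak areas at 0, 60, 120 and 240 min, normalised to time 0 as 100%, give percent remaining. Reactions used 1 μM final peptide at 37° C in pancreatin-SIF (1 mg pancreatin in 10 mL SIF concentrate) and were stopped with ethanol containing 0.1% HCOOH.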

Structures are written as SMILES. Starred links: 1 amine or outer side, 2 acyl side, 3 side chain; linkers in the order of their positions; H or OH if unused. Positions of bridges follow the written chain, without caps; N, C: chain ends. Non-standard residues stand in square brackets, D forms with d. Residues, ends and D or L forms follow the SMILES beside them. *: point of attachment. X3 = CN(CCCCC(=O)N[C@@H](CS[*:2])C(=O)[*:1])[*:3]; Trp(7-Me) = Cc1cccc2c(C[C@H](N)C(=O)O)c[nH]c12; X1 = O=C(CCCCN[*:3])N[C@@H](CS[*:2])C(=O)[*:1]; αMeLys(Me2) = CN(C)CCCC[C@](C)(N)C(=O)O; X2 = CN(C)[C@@H](CCCCN[*:1])C(=O)[*:2]; 2Nal = N[C@@H](Cc1ccc2ccccc2c1)C(=O)O; AEF = NCCOc1ccc(C[C@H](N)C(=O)O)cc1; 3Pal = N[C@@H](Cc1cccnc1)C(=O)O; αMeL = CC(C)C[C@](C)(N)C(=O)O; Thp = NC1(C(=O)O)CCOCC1; Me2NCH2CH2 = CN(C)CC*; Aib = CC(C)(N)C(=O)O; Ahx = NCCCCCC(=O)O; Ava = NCCCCC(=O)O; βAla = NCCC(=O)O; Sar = CNCC(=O)O

As to `CC(=O)NCCCC[C@@H]1NC(=O)[C@H](Cc2c[nH]c3c(C)cccc23)NC(=O)[C@H]([C@@H](C)O)NC(=O)[C@H](CC(N)=O)NC(=O)[C@@H]2CSSC[C@H](NC1=O)C(=O)N[C@@H](Cc1ccc(OCCN(C)C)cc1)C(=O)N[C@@H](Cc1ccc3ccccc3c1)C(=O)N[C@@](C)(CC(C)C)C(=O)N[C@H](C(=O)N[C@@H](CC(N)=O)C(=O)N[C@@H](Cc1c[nH]cn1)C(=O)NCCC(N)=O)CCC(=O)NCCCCC(=O)N2` [compound 50] ([Ava]CNT[Trp(7-Me)]K(Ac)CY(Me2NCH2CH2)[2Nal][αMeL]ENH[βAla]-NH2; disulfide 2-7; lactam N-11), the share remaining at 1 h, 1 µM was 95%; the share remaining at 2 h, 1 µM is 85%; the share remaining at 4 h, 1 µM was 85%.
Take `CC(=O)N[C@H]1CCCCNC(=O)[C@@H]2CSSC[C@H](NC(=O)[C@H](CCC(N)=O)NC(=O)[C@H](Cc3c[nH]c4ccccc34)NC1=O)C(=O)N[C@@H](Cc1ccc(OCCN)cc1)C(=O)N[C@@H](Cc1ccc3ccccc3c1)C(=O)N[C@@](C)(CC(C)C)C(=O)N[C@H](C(=O)N[C@@H](CC(N)=O)C(=O)N[C@@H](CC(N)=O)C(N)=O)CCC(=O)N(C)CCCCC(=O)N2` [compound 14] (Ac-KWQC[AEF][2Nal][αMeL]ENN-NH2; linker 1-4-8 via X3): the fraction remaining at 1 h, 1 µM was 83%; the share remaining at 2 h, 1 µM was 68%; the amount remaining at 4 h, 1 µM is 49%.
Regarding `CC(=O)N[C@H]1CCCCNC(=O)[C@@H]2CSSC[C@H](NC(=O)[C@H](CCC(N)=O)NC(=O)[C@H](Cc3c[nH]c4ccccc34)NC1=O)C(=O)N[C@@H](Cc1ccc(OCCN(C)C)cc1)C(=O)N[C@@H](Cc1ccc3ccccc3c1)C(=O)NC1(CCOCC1)C(=O)N[C@H](C(=O)N[C@@H](C)C(=O)N[C@H](CC(C)C)C(N)=O)CCC(=O)NCCCCC(=O)N2` [compound 33] (Ac-KWQCY(Me2NCH2CH2)[2Nal][Thp]EA[dL]-NH2; linker 1-4-8 via X1), the amount remaining at 1 h, 1 µM is 100%; the amount remaining at 2 h, 1 µM is 100%; the amount remaining at 4 h, 1 µM is 85%.
`Cc1cccc2c(C[C@@H]3NC(=O)[C@H]([C@@H](C)O)NC(=O)[C@H](CC(N)=O)NC(=O)[C@@H]4CSSC[C@H](NC(=O)[C@H](CC(C)C)NC3=O)C(=O)N[C@@H](Cc3ccc(OCCN(C)C)cc3)C(=O)N[C@@H](Cc3ccc5ccccc5c3)C(=O)NC3(CCOCC3)C(=O)N[C@H](C(=O)N[C@@H](CC(N)=O)C(=O)N[C@@H](Cc3cccnc3)C(=O)N(C)CC(N)=O)CCC(=O)NCCCCC(=O)N4)c[nH]c12` [compound 24] ([Ava]CNT[Trp(7-Me)]LCY(Me2NCH2CH2)[2Nal][Thp]EN[3Pal][Sar]-NH2; disulfide 2-7; lactam N-11): the fraction remaining at 1 h, 1 µM is 80%; the fraction remaining at 2 h, 1 µM was 79%; the share remaining at 4 h, 1 µM was 76%.
For `CC(=O)N[C@H]1CCCCNC(=O)[C@@H]2CSSC[C@H](NC(=O)[C@H](CCC(N)=O)NC(=O)[C@H](Cc3c[nH]c4ccccc34)NC1=O)C(=O)N[C@@H](Cc1ccc(OCCN(C)C)cc1)C(=O)N[C@@H](Cc1ccc3ccccc3c1)C(=O)NC(C)(C)C(=O)N[C@H](C(=O)N[C@@H](C)C(=O)NCC(N)=O)CCC(=O)NCCCCC(=O)N2` [compound 32] (Ac-KWQCY(Me2NCH2CH2)[2Nal][Aib]EAG-NH2; linker 1-4-8 via X1), in that order: 89%, 77% and 55%.
The matching figures for `COc1ccc(C[C@@H]2NC(=O)[C@@H]3CSSC[C@H](NC(=O)CCC(=O)NCCCC[C@@H](C(=O)N[C@@H](CC(N)=O)C(=O)N[C@@H](CC(N)=O)C(N)=O)NC(=O)C(C)(C)NC(=O)[C@H](Cc4ccc5ccccc5c4)NC2=O)C(=O)N[C@@H](CC(N)=O)C(=O)N[C@@H]([C@@H](C)O)C(=O)N[C@@H](Cc2c[nH]c4ccccc24)C(=O)N[C@@H](CCC(N)=O)C(=O)N3)cc1` [compound 11]: 80%, 76% and 65%.
For `CC(=O)NCCCC[C@@H]1NC(=O)[C@H](Cc2c[nH]c3c(C)cccc23)NC(=O)[C@H]([C@@H](C)O)NC(=O)[C@H](CC(N)=O)NC(=O)[C@@H]2CSSC[C@H](NC1=O)C(=O)N[C@@H](Cc1ccc(OCCN(C)C)cc1)C(=O)N[C@@H](Cc1ccc3ccccc3c1)C(=O)NC(C)(C)C(=O)N[C@H](C(=O)N[C@@H](CC(N)=O)C(=O)N[C@@H](Cc1c[nH]cn1)C(=O)NCCC(N)=O)CCC(=O)NCCCCC(=O)N2` [compound 48] ([Ava]CNT[Trp(7-Me)]K(Ac)CY(Me2NCH2CH2)[2Nal][Aib]ENH[βAla]-NH2; disulfide 2-7; lactam N-11), in that order: 80%, 80% and 76%.
As to `CC(=O)NCCCC[C@@H]1NC(=O)[C@H](Cc2c[nH]c3ccccc23)NC(=O)[C@@H](N(C)C)CCCCNC(=O)[C@@H]2CSSC[C@H](NC1=O)C(=O)N[C@@H](Cc1ccc(OCCN(C)C)cc1)C(=O)N[C@@H](Cc1ccc3ccccc3c1)C(=O)N[C@@](C)(CCCCN(C)C)C(=O)N[C@H](C(=O)N[C@@H](CC(N)=O)C(=O)N[C@@H](Cc1cccnc1)C(=O)N(C)CC(N)=O)CCC(=O)NCCCCC(=O)N2` [compound 36] ([Ava]C[X2]WK(Ac)CY(Me2NCH2CH2)[2Nal][αMeLys(Me2)]EN[3Pal][Sar]-NH2; disulfide 2-6; lactam N-10), the amount remaining at 1 h, 1 µM was 97%; the share remaining at 2 h, 1 µM was 93%; the share remaining at 4 h, 1 µM was 92%.
For `CC(=O)N[C@H]1CCCCNC(=O)[C@@H]2CSSC[C@H](NC(=O)[C@H](CCC(N)=O)NC(=O)[C@H](Cc3c[nH]c4ccccc34)NC1=O)C(=O)N[C@@H](Cc1ccc(OCCN)cc1)C(=O)N[C@@H](Cc1ccc3ccccc3c1)C(=O)NC(C)(C)C(=O)N[C@H](C(=O)N[C@@H](C)C(=O)N[C@H](CC(C)C)C(N)=O)CCC(=O)N(C)CCCCC(=O)N2` [compound 19] (Ac-KWQC[AEF][2Nal][Aib]EA[dL]-NH2; linker 1-4-8 via X3), in that order: 92%, 81% and 76%.
For `CC(=O)NCCCC[C@@H]1NC(=O)[C@H](Cc2c[nH]c3c(C)cccc23)NC(=O)[C@H]([C@@H](C)O)NC(=O)[C@H](CC(N)=O)NC(=O)[C@@H]2CSSC[C@H](NC1=O)C(=O)N[C@@H](Cc1ccc(OCCN(C)C)cc1)C(=O)N[C@@H](Cc1ccc3ccccc3c1)C(=O)NC(C)(C)C(=O)N[C@H](C(=O)N[C@@H](CC(N)=O)C(=O)N[C@@H](Cc1c[nH]cn1)C(=O)N(C)CC(N)=O)CCC(=O)NCCCCC(=O)N2` [compound 45] ([Ava]CNT[Trp(7-Me)]K(Ac)CY(Me2NCH2CH2)[2Nal][Aib]ENH[Sar]-NH2; disulfide 2-7; lactam N-11), in that order: 82%, 83% and 74%.
Turning to `CC(=O)N[C@H]1CCCCNC(=O)[C@@H]2CSSC[C@H](NC(=O)[C@H](CCC(N)=O)NC(=O)[C@H](Cc3c[nH]c4ccccc34)NC1=O)C(=O)N[C@@H](Cc1ccc(OCCN)cc1)C(=O)N[C@@H](Cc1ccc3ccccc3c1)C(=O)N[C@@](C)(CC(C)C)C(=O)N[C@H](C(=O)N[C@@H](C)C(=O)N[C@H](CC(C)C)C(N)=O)CCC(=O)N(C)CCCCC(=O)N2` [compound 44] (Ac-KWQC[AEF][2Nal][αMeL]EA[dL]-NH2; linker 1-4-8 via X3), the fraction remaining at 1 h, 1 µM is 64%; the share remaining at 2 h, 1 µM was 61%; the share remaining at 4 h, 1 µM was 59%.
Take `CC(=O)N[C@H]1CCCCNC(=O)[C@@H]2CSSC[C@H](NC(=O)[C@H](CCC(N)=O)NC(=O)[C@H](Cc3c[nH]c4ccccc34)NC1=O)C(=O)N[C@@H](Cc1ccc(OCCN)cc1)C(=O)N[C@@H](Cc1ccc3ccccc3c1)C(=O)N[C@@](C)(CC(C)C)C(=O)N[C@H](C(=O)N[C@@H](C)C(=O)NCC(N)=O)CCC(=O)N(C)CCCCC(=O)N2` [compound 18] (Ac-KWQC[AEF][2Nal][αMeL]EAG-NH2; linker 1-4-8 via X3): the fraction remaining at 1 h, 1 µM is 81%; the fraction remaining at 2 h, 1 µM was 76%; the fraction remaining at 4 h, 1 µM was 76%.
As to `CC(=O)N[C@H]1CCCCNC(=O)[C@@H]2CSSC[C@H](NC(=O)[C@H](CCC(N)=O)NC(=O)[C@H](Cc3c[nH]c4ccccc34)NC1=O)C(=O)N[C@@H](Cc1ccc(OCCN)cc1)C(=O)N[C@@H](Cc1ccc3ccccc3c1)C(=O)NC1(CCOCC1)C(=O)N[C@H](C(=O)N[C@@H](CC(N)=O)C(=O)NCC(N)=O)CCC(=O)N(C)CCCCC(=O)N2` [compound 16] (Ac-KWQC[AEF][2Nal][Thp]ENG-NH2; linker 1-4-8 via X3), the amount remaining at 1 h, 1 µM was 83%; the amount remaining at 2 h, 1 µM was 67%; the share remaining at 4 h, 1 µM was 50%.
`CC(=O)N[C@H]1CCCCNC(=O)[C@@H]2CSSC[C@H](NC(=O)[C@H](CCC(N)=O)NC(=O)[C@H](Cc3c[nH]c4ccccc34)NC1=O)C(=O)N[C@@H](Cc1ccc(OCCN)cc1)C(=O)N[C@@H](Cc1ccc3ccccc3c1)C(=O)NC1(CCOCC1)C(=O)N[C@H](C(=O)N[C@@H](C)C(=O)N[C@H](CC(C)C)C(N)=O)CCC(=O)N(C)CCCCC(=O)N2` [compound 34] (Ac-KWQC[AEF][2Nal][Thp]EA[dL]-NH2; linker 1-4-8 via X3): the share remaining at 1 h, 1 µM was 100%; the share remaining at 2 h, 1 µM is 99%; the amount remaining at 4 h, 1 µM is 96%.
In the case of `C[C@@H](O)[C@@H]1NC(=O)[C@H](CC(N)=O)NC(=O)[C@@H]2CSSC[C@H](NC(=O)[C@H](CCC(N)=O)NC(=O)[C@H](Cc3c[nH]c4ccccc34)NC1=O)C(=O)N[C@@H](Cc1ccc(OCCN)cc1)C(=O)N[C@@H](Cc1ccc3ccccc3c1)C(=O)NC(C)(C)C(=O)N[C@H](C(=O)N[C@@H](CC(N)=O)C(=O)NCC(N)=O)CC(=O)NCCCCCC(=O)N2` [compound 9] ([Ahx]CNTWQC[AEF][2Nal][Aib]DNG-NH2; disulfide 2-7; lactam N-11), the share remaining at 1 h, 1 µM is 102%; the share remaining at 2 h, 1 µM is 100%; the amount remaining at 4 h, 1 µM was 85%.
